Literature values, collected in patent US20140037700A1, “Composition and Method for Enhancing an Immune Response” (priority 2011, published 2014).

Assays:
[1] = in the presence of a normal or high calcium diet; DeLuca et al.
[2] = tested on: tuberculosis growth in human monocytes; design: dose or concentration left out as unconfirmed; conditions: alone, in vitro; Denis et al.
[3] = tested on: anti-microbial peptide cathelicidin; conditions: exposure of macrophages
[4] = tested on: M. tb cells in NRP2 state; conditions: oxygen 0.06% of normal saturation (anaerobic)
[5] = combined with liposomes
TACO gene transcription = conditions: human macrophages
[6] = tested on: M. tuberculosis survival within macrophages

C=C1/C(=C\C=C2/CCC[C@]3(C)[C@@H]([C@H](C)CCCC(C)(C)O)CC[C@@H]23)C[C@@H](O)C[C@@H]1O [Calcitriol, 1,25-dihydroxyvitamin D]
bacillary replication in macrophages (M.tb within macrophages; even at extremely low concentrations, Crowle et al.): slow and stop bacillary replication | colony forming units (M.tb within macrophages; primary human macrophages infected with virulent M. tb): reduced colony forming units | prevention or suppression of autoimmune disease in models [1]: prevent or markedly suppress | ability of human monocytes to restrict tuberculosis growth [2]: significant ability to restrict tuberculosis growth | expression of anti-microbial peptide cathelicidin [3]: induces expression

NNC(=O)c1ccncc1 [isoniazid]
susceptibility of NRP2 cells to antibiotic [4]: resistant

Cc1ncc([N+](=O)[O-])n1CCO [metronidazole]
susceptibility of NRP2 cells to antibiotic [4]: sensitive

Monophosphoryl lipid A
mucosal immunoprotective responses [5]: induce mucosal immunoprotective responses

epigallocatechin-3-gallate [EGCG]
TACO gene transcription (TACO gene transcription): down-regulates TACO gene transcription in a dose-dependent manner | mycobacterium survival within macrophages ([6]; in vitro, flow cytometry and colony counts): substantially reduced mycobacterium survival | M. tuberculosis survival within macrophages ([6]; used prior to M. tb exposure in vitro): completely inhibits
